# pIC50: −log10 of the molar value. Where two headings read alike, the source gives them in different places.
# Key:
# Type in all cases: cell-based
# OR28/OR7 = OR28/OR7 (Anopheles gambiae, UniProt A0A1S4GFY3+Q7QCC7); assay: Ca2+-imaging of stable HEK293T cell line OR28/OR7; conditions: for inhibition at 4 µM: HEK-293T, read-out: Percent Inhibition OR28 OR7
# Summary of the method: (§1)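 HEK293T stable lines (OR+OR7 co-receptor; TRPM8 single). Ca-4 dye 1.5 hr RT, dark. Compounds ([…] DMSO stock) spiked into odorant plates in HBSS; last two columns DMSO only.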
# mOREG = target: T1, mOREG (Mus musculus, UniProt Q920P2); assay: Ca2+-imaging, control receptor mOREG; conditions: for inhibition at 4 µM: compound applied at 4 μM, read-out: Percent Inhibition mOREG; for pIC50: Table B
# T1 sequence (Q920P2 1-313): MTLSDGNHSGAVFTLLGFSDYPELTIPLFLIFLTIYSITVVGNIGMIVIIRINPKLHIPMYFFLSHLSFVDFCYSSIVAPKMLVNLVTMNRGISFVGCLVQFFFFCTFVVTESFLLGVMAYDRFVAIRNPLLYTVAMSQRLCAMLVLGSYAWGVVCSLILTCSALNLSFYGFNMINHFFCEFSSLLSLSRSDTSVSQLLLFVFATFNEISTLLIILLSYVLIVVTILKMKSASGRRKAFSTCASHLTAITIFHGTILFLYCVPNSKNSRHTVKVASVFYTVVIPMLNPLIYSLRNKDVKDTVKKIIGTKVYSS
# Summary of the method: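 Fluorescent Ca2+ responses (ex 485/em 525 nm) measured in real time after odorant application, with small compounds transferred into the HBSS odorant solutions beforehand. Cells were seeded on poly-D-lysine 2 days ahead and dye-loaded (Ca-4, 1.5 hr, room temperature); controls were HBSS buffer and ligand.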
# TRP channel (TRPM8) = target: T2, TRP channel (TRPM8) (Mus musculus, UniProt Q8R4D5); assay: Ca2+-imaging of stable HEK293T cell line TRPM8; conditions: HEK-293T; compound applied at 4 μM; read-out: Percent Inhibition TRPM8
# T2 construct: Full-length cDNAs for mosquito (Anopheles gambiae) odorant receptor (OR1, OR2, OR7, OR8, OR28), and fly (Drosophila melanogaster) odorant receptor (Or47a, Or83b), mouse TRP channel (TRPM8); expressed in transfected cells
# Summary of the method: as §1
# OR28/OR7, sequence (A0A1S4GFY3 entry or part of it): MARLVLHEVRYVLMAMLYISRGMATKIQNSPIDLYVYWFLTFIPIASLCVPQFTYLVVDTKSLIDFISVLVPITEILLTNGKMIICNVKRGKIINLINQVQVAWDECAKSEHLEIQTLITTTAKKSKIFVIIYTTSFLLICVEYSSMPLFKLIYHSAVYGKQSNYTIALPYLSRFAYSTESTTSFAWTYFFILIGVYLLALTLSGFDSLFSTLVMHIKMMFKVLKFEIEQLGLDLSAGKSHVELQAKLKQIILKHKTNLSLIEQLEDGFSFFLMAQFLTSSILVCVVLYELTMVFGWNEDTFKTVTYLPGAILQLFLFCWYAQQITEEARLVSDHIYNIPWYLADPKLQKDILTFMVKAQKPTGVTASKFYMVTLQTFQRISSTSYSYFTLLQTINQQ
# OR28/OR7, sequence (Q7QCC7 whole entry): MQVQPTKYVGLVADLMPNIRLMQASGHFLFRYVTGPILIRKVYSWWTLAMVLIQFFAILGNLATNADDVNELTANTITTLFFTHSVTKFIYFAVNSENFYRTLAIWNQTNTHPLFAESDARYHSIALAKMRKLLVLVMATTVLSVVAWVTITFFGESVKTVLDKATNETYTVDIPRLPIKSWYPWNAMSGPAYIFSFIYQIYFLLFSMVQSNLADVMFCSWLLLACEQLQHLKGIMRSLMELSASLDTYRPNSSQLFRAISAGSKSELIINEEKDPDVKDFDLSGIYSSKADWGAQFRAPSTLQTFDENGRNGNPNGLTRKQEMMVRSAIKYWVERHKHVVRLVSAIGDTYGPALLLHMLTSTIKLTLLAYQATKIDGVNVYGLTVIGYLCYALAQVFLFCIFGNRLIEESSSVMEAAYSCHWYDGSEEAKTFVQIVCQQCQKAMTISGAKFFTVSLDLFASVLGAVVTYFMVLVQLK
# T2 sequence (Q8R4D5 whole entry): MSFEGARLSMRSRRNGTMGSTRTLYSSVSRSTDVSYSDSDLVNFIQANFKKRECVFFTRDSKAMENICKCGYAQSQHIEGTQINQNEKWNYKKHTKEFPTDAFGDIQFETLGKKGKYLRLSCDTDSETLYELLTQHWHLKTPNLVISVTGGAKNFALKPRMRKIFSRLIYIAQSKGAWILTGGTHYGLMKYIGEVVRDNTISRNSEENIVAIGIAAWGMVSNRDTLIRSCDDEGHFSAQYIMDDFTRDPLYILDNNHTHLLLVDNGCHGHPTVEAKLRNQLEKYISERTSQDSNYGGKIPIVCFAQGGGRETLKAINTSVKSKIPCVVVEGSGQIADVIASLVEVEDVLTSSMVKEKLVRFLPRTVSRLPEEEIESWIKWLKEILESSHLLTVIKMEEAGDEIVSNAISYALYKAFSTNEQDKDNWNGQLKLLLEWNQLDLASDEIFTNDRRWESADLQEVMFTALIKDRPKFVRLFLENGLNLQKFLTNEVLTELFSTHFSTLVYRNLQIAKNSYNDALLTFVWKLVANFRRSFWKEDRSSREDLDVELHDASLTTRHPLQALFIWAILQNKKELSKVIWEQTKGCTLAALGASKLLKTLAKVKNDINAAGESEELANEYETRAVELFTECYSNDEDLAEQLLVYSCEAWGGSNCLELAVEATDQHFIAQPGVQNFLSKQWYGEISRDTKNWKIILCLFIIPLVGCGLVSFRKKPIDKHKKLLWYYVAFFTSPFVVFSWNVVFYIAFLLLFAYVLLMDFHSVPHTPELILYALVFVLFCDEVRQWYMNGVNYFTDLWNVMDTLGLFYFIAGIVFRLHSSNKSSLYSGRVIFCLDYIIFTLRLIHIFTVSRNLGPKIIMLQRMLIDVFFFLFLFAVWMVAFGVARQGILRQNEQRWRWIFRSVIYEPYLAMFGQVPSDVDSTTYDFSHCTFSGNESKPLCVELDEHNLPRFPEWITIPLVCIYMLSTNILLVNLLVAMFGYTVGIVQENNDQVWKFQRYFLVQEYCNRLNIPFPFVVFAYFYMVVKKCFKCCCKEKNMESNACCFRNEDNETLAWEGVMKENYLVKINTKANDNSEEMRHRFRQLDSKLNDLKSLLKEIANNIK
Compound,inhibition at 4 µM (OR28/OR7; compound applied at 4 μM) [%],inhibition at 4 µM (mOREG) [%],inhibition at 4 µM (TRP channel (TRPM8)) [%],"pIC50 (OR28/OR7; Table B, read-out: IC50 OR28)",pIC50 (mOREG),pIC50 (OR28/OR7),inhibition at 4 µM (OR28/OR7) [%]
Cc1cc(C)c2c(c1C(=O)N1CCC3(CC1)C(=O)NCN3c1ccccc1)CC(C)(C)C2=O [RU-0025771],> 75,26 to 50,26 to 50,,,,
C=C[C@@](C)(O)CCC1C(=C)CCC2[C@@](C)(CO)CCC[C@]12C (stereo partly shown) [RU-0001327],> 75,26 to 50,< 25,< 6.00,,,
COc1cc(OC)cc(C2NC(=O)N(C)C3=C2C(=O)N(C2CCCCC2)C3)c1 (stereo not shown) [RU-0047750],> 75,< 25,< 25,< 6.00,,,
Cc1ccc(CN(Cc2ccc(F)cc2)C(=O)CN(C(=O)NC(C)(C)C)C2CC2)s1 [RU-0052360],> 75,26 to 50,26 to 50,6.00 to 7.00,,,
COc1ccccc1N1CCN(C(=O)c2cc3n(n2)CCN(Cc2c(F)cccc2Cl)C3=O)CC1 [RU-0043595],> 75,51 to 74,< 25,> 7.00,< 6.00,,
Cc1ccc(-n2nc(C)c(CCC(=O)N3CCc4ccccc4C3)c2C)cc1Cl [RU-0026074],> 75,< 25,26 to 50,,,,
COc1ccc(N2CCN(C(=O)C3CC=CCC3C(=O)NC(c3ccccc3)c3ccccn3)CC2)cc1 (stereo not shown) [RU-0026507],> 75,< 25,< 25,< 6.00,,,
COCCNC(=O)c1ccc(CSc2nnc(-c3ccc(C)cc3)n2-c2ccccc2F)cc1 [RU-0051652],51 to 74,< 25,< 25,< 6.00,,,
COc1ccc(C(=O)c2ccccc2)c(O)c1O [RU-0001617],51 to 74,< 25,< 25,< 6.00,,,
COc1nc(OCC#N)nc(N2CCCCC2)n1 [RU-0006256],> 75,< 25,26 to 50,> 7.00,,,
CCOC(=O)C(c1cccc(OC)c1)C1C=CC(NC(=O)c2cccs2)C1 (stereo not shown) [RU-0074560],51 to 74,< 25,< 25,< 6.00,,,
CN(C)c1nc(N(C)C)nc(N(C)C)n1 [RU-0000619],51 to 74,51 to 74,< 25,> 7.00,< 6.00,,
COCCCN(CC(=O)N1CCc2sccc2C1COc1cccc(OC)c1)C(=O)Cc1ccccc1 (stereo not shown) [RU-0036264],51 to 74,< 25,26 to 50,6.00 to 7.00,,,
COc1ccc(N2CCN(C(=O)C3CC=CCC3C(=O)NCCCCc3ccccc3)CC2)cc1 (stereo not shown) [RU-0026167],51 to 74,26 to 50,26 to 50,> 7.00,,,
CC(NCc1ccccc1)c1nc2ccccc2c(=O)n1-c1ccc(Cl)cc1 (stereo not shown) [RU-0072535],> 75,26 to 50,< 25,> 7.00,,,
Cc1ccc(CN(CCc2ccccc2)C(=O)CN(C(=O)NC(C)(C)C)C(C)C)o1 [RU-0072008],> 75,26 to 50,< 25,> 7.00,,,
CN(Cc1ccccc1)C(=O)CCC1CCN(C(=O)CCOc2ccccc2)CC1 [RU-0028727],> 75,51 to 74,26 to 50,> 7.00,< 6.00,,
COC(=O)C(Cc1ccccc1)NC(=O)C1CC1(c1ccccc1)c1ccccc1 (stereo not shown) [RU-0028029],51 to 74,< 25,26 to 50,> 7.00,,,
COCCN(Cc1cc(Cl)ccc1OS(=O)(=O)c1ccc(F)cc1)C(=O)C1CCC1 [RU-0035287],> 75,26 to 50,< 25,> 7.00,,,
CC(NC(=O)c1cc2n(n1)CCN(Cc1c(Cl)cccc1Cl)C2=O)c1ccccc1 (stereo not shown) [RU-0045115],> 75,26 to 50,< 25,> 7.00,,,
COc1nc(NC(C)C)nc(NC(C)C)n1 [RU-0001534],,< 25,< 25,,,> 7.00,> 75
O=C1CN(S(=O)(=O)c2c(F)cc(F)cc2F)CC2c3cccc(F)c3CCN12 (stereo not shown) [RU-0076832],> 75,26 to 50,< 25,> 7.00,,,
COc1ccc(-c2nnc(SCc3ccc(C#N)cc3)n2-c2ccc(C)cc2)cc1 [RU-0046426],> 75,51 to 74,< 25,< 6.00,< 6.00,,
COCCCN(CC(=O)N1CCc2sccc2C1COc1cccc(OC)c1)C(=O)c1ccccc1OC (stereo not shown) [RU-0036294],> 75,26 to 50,26 to 50,6.00 to 7.00,,,
CCCCc1nc(CN2CCc3c([nH]c4ccccc34)C2c2cccc(OC)c2OC)c[nH]1 (stereo not shown) [RU-0031879],> 75,26 to 50,26 to 50,> 7.00,,,
CCOC(=O)C(c1ccc(OC)c(OC)c1)C1C=CC(NC(=O)c2ccc3c(c2)OCO3)C1 (stereo not shown) [RU-0049030],> 75,< 25,< 25,> 7.00,,,
CCOCCCN(CC(=O)N(Cc1ccc2c(c1)OCO2)Cc1sccc1C)C(=O)NC(C)(C)C [RU-0052340],> 75,26 to 50,< 25,> 7.00,,,
CCOc1ccccc1C(=O)NNC(=O)COc1cc(C)cc(C)c1 [RU-0023245],> 75,26 to 50,< 25,< 6.00,,,
CCN(CC)C(=O)Oc1ccc2c(ccn2Cc2cccc(C)c2)c1NC(=O)[C@H](C)OC(C)=O [RU-0075468],> 75,> 75,< 25,> 7.00,> 7.00,,
COCCCN(CC(=O)N1CCc2sccc2C1c1ccc(OC)cc1)C(=O)C(C)(C)CCl (stereo not shown) [RU-0069950],> 75,51 to 74,< 25,> 7.00,< 6.00,,

# Source: patent US20130324522A1, “INSECT ODORANT RECEPTOR ANTAGONISTS” (THE ROCKEFELLER UNIVERSITY, priority 2010, published 2013)
